Laboratory results: patent publication US9855272B2, “1H-pyrazolo[3,4-B]pyridines and therapeutic uses thereof” (Samumed, LLC, priority 2009, dated 2018)

The molecules below were run on Wnt (assay: Wnt reporter assay: SP5 promoter-driven firefly luciferase in SW480 cells). Conditions: Homo sapiens; SW480 colon cancer cells with SP5 promoter (TCF/LEF) luciferase reporter; 24-40 h after compound addition; normalized to DMSO; read-out: Wnt inhibition, IC50.
Format: cell-based
Description: Another screening assay for Wnt activity is described as follows. Reporter cell lines can be generated by stably transducing cells of cancer cell lines (e.g., colon cancer) with a lentiviral construct that include a wnt-responsive promoter driving expression of the firefly luciferase gene.
Lentiviral constructs can be made in which the SP5 promoter, a promoter having eight TCF/LEF binding sites derived from the SP5 promoter, is linked upstream of the firefly luciferase gene. The lentiviral constructs can also include a hygromycin resistance gene as a selectable marker. The SP5 promoter construct can be used to transduce SW480 cells, a colon cancer cell line having a mutated APC gene that generates a truncated APC protein, leading to de-regulated accumulation of β-catenin.
Cultured SW480 cells bearing a reporter construct can be distributed at approximately 10,000 cells per well into 96 well or 384 well plates. Compounds from a small molecule compound library can then be added to the wells in half-log dilutions using a ten micromolar top concentration. A series of control wells for each cell type receive only buffer and compound solvent. Twenty-four to forty hours after the addition of compound, reporter activity for luciferase can be assayed, for example, by addition of the BrightGlo luminescence reagent (Promega) and the Victor3 plate reader (Perkin Elmer). Readings can be normalized to DMSO only treated cells, and normalized activities can then be used in the IC50 calculations.

Row | SMILES | IC50
1 | Cc1ccncc1-c1cnc2[nH]nc(-c3nc4ccncc4[nH]3)c2c1 [Compound 29, 3-(3H-imidazo[4,5-c]pyridin-2-yl)-5-(4-methylpyridin-3-yl)-1H-pyrazolo[3,4-b]pyridine] | 3000 to 5000 nM
2 | c1cncc(-c2cnc3[nH]nc(-c4nc5c(-c6cccnc6)cncc5[nH]4)c3c2)c1 [Compound 45] | 200 to 1200 nM
3 | c1cncc(-c2cnc3[nH]nc(-c4nc5ccncc5[nH]4)c3c2)c1 [Compound 46] | 1000 to 2000 nM
4 | CCC(=O)Nc1cncc(-c2cnc3[nH]nc(-c4nc5c(-c6cccnc6)cncc5[nH]4)c3c2)c1 [Compound 47, N-(5-(3-(7-(pyridin-3-yl)-3H-imidazo[4,5-c]pyridin-2-yl)-1H-pyrazolo[3,4-b]pyridin-5-yl)pyridin-3-yl)propionamide] | 7000 to 10000 nM
5 | CCC(=O)Nc1cncc(-c2cnc3[nH]nc(-c4nc5c(-c6cccc(F)c6)cncc5[nH]4)c3c2)c1 [Compound 49, N-(5-(3-(7-(3-fluorophenyl)-3H-imidazo[4,5-c]pyridin-2-yl)-1H-pyrazolo[3,4-b]pyridin-5-yl)pyridin-3-yl)propionamide] | < 5 nM
6 | CCC(=O)Nc1cncc(-c2cnc3[nH]nc(-c4nc5c(-c6ccc(F)cc6)cncc5[nH]4)c3c2)c1 [Compound 50, N-(5-(3-(7-(4-fluorophenyl)-3H-imidazo[4,5-c]pyridin-2-yl)-1H-pyrazolo[3,4-b]pyridin-5-yl)pyridin-3-yl)propionamide] | < 1.5 nM
7 | CCC(=O)Nc1cncc(-c2cnc3[nH]nc(-c4nc5c(-c6ccccc6F)cncc5[nH]4)c3c2)c1 [Compound 51, N-(5-(3-(7-(2-fluorophenyl)-3H-imidazo[4,5-c]pyridin-2-yl)-1H-pyrazolo[3,4-b]pyridin-5-yl)pyridin-3-yl)propionamide] | < 45 nM
8 | CC(C)C(=O)Nc1cncc(-c2cnc3[nH]nc(-c4nc5ccncc5[nH]4)c3c2)c1 [Compound 52, N-(5-(3-(3H-imidazo[4,5-c]pyridin-2-yl)-1H-pyrazolo[3,4-b]pyridin-5-yl)pyridin-3-yl)isobutyramide] | > 10000 nM
9 | CC(C)CC(=O)Nc1cncc(-c2cnc3[nH]nc(-c4nc5ccncc5[nH]4)c3c2)c1 [Compound 53, N-(5-(3-(3H-imidazo[4,5-c]pyridin-2-yl)-1H-pyrazolo[3,4-b]pyridin-5-yl)pyridin-3-yl)-3-methylbutanamide] | > 10000 nM
10 | CCC(=O)Nc1cncc(-c2cnc3[nH]nc(-c4nc5c(N6CCOCC6)cncc5[nH]4)c3c2)c1 [Compound 55, N-(5-(3-(7-morpholino-3H-imidazo[4,5-c]pyridin-2-yl)-1H-pyrazolo[3,4-b]pyridin-5-yl)pyridin-3-yl)propionamide] | > 10000 nM
11 | CC(C)CC(=O)Nc1cncc(-c2cnc3[nH]nc(-c4nc5c(N6CCN(C)CC6)cncc5[nH]4)c3c2)c1 [Compound 57, 3-methyl-N-(5-(3-(7-(4-methylpiperazin-1-yl)-3H-imidazo[4,5-c]pyridin-2-yl)-1H-pyrazolo[3,4-b]pyridin-5-yl)pyridin-3-yl)butanamide] | 1000 to 4000 nM
12 | CC(C)C(=O)Nc1cncc(-c2cnc3[nH]nc(-c4nc5c(N6CCN(C)CC6)cncc5[nH]4)c3c2)c1 [Compound 59, N-(5-(3-(7-(4-methylpiperazin-1-yl)-3H-imidazo[4,5-c]pyridin-2-yl)-1H-pyrazolo[3,4-b]pyridin-5-yl)pyridin-3-yl)isobutyramide] | 2000 to 3000 nM
13 | O=C(Nc1cncc(-c2cnc3[nH]nc(-c4nc5c(-c6cccc(F)c6)cncc5[nH]4)c3c2)c1)N1CCOCC1 [Compound 62, N-(5-(3-(7-(3-fluorophenyl)-3H-imidazo[4,5-c]pyridin-2-yl)-1H-pyrazolo[3,4-b]pyridin-5-yl)pyridin-3-yl)morpholine-4-carboxamide] | < 20 nM
14 | CN(C)C(=O)Nc1cncc(-c2cnc3[nH]nc(-c4nc5c(-c6cccc(F)c6)cncc5[nH]4)c3c2)c1 [Compound 66, 3-(5-(3-(7-(3-fluorophenyl)-3H-imidazo[4,5-c]pyridin-2-yl)-1H-pyrazolo[3,4-b]pyridin-5-yl)pyridin-3-yl)-1,1-dimethylurea] | < 15 nM
